# Measurements published in paper PMC12394665, “Structural and biochemical basis for activity of Aspergillus nidulans α-1,3-glucanases from glycoside hydrolase family 71” (Communications Biology, 2025).
# Assays:
# [1] = target: T1, AnGH71C (Aspergillus nidulans, UniProt G5EB58); experiment: X-ray crystal structure (soak), […] Å; settings: crystal soaked 2 min with saturating ligand; two glucose molecules in the binding cleft per protein molecule
# T1 construct: gene ANIA_07349; putative signal peptide removed; N-terminal His6 tag, modified pET-28a with TEV site; recombinant E. coli BL21 (DE3); IMAC and gel filtration
# T1 sequence (G5EB58 23-431): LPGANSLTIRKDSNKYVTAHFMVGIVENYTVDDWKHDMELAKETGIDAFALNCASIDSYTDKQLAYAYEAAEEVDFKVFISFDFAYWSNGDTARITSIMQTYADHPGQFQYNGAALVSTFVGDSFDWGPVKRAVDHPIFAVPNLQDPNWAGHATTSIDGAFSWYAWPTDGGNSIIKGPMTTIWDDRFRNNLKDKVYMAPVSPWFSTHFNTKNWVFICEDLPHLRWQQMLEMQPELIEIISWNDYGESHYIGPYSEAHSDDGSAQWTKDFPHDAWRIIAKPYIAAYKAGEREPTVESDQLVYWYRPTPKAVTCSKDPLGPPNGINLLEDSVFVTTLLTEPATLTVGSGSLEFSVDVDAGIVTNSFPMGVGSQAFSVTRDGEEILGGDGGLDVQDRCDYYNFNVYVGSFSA
# [2] = target: T1, AnGH71C; experiment: X-ray crystal structure (soak), […] Å; type: binding
smiles,measurement,setting,value
OC[C@H]1OC(O)[C@H](O)[C@@H](O)[C@@H]1O (stereo partly drawn) [glucose],"X-ray crystal structure (soak), 1.37 Å",[1],glucose-soaked crystals each contain two glucose molecules located in the same position
OC[C@H]1O[C@H](O[C@@H]2[C@@H](O)[C@@H](O[C@@H]3[C@@H](O)[C@@H](O[C@H]4[C@H](O)[C@@H](CO)OC(O)[C@@H]4O)O[C@H](CO)[C@H]3O)O[C@H](CO)[C@H]2O)[C@H](O)[C@@H](O)[C@@H]1O (stereo partly drawn) [nigerotetraose],"X-ray crystal structure (soak), 1.92 Å","[2]; crystal soaked 2 min with saturating ligand, active-site cleft, -4 to -1 subsites among others, α- and β-anomers",Complexes of AnGH71C with glucose and nigerotriose/nigerotetraose were obtained by soaking crystals with ligand
OC[C@H]1O[C@H](O[C@@H]2[C@@H](O)[C@@H](O[C@H]3[C@H](O)[C@@H](CO)OC(O)[C@@H]3O)O[C@H](CO)[C@H]2O)[C@H](O)[C@@H](O)[C@@H]1O (stereo partly drawn) [nigerotriose],"X-ray crystal structure (soak), 1.92 Å","[2]; crystal soaked with nigerotetraose, nigerotriose in active-site cleft subsites, one extra on cleft surface in chain B",four protein molecules of the nigerotetraose-soaked crystals contain distinct combinations of nigerotriose and nigerotetraose
